The results in this text go back to article PMC4744088 (Journal of biomolecular screening, 2015).

This assay in a line: "true hits" assay alpha screen signal. The conditions noted are these: indicates false positive.

Consider `Nc1c(S(=O)(=O)O)cc(Nc2ccc(Nc3nc(Cl)nc(Nc4cccc(S(=O)(=O)O)c4)n3)c(S(=O)(=O)O)c2)c2c1C(=O)c1ccccc1C2=O` [Reactive blue 2], for which the “inhibition of the "true hits" assay alpha screen signal” value is listed as “greater than 50%”.
